Consider two molecules from patent publication US20240287102A1, “NOVEL CRYSTALLINE FORMS OF [(1R)-2-(1-BENZOFURAN-3-YL)-1-{[(1S,2R,4R)-7-OXABICYCLO[2.2.1]HEPTAN-2-YL]FORMAMIDO}ETHYL]BORONIC ACID, ADDUCTS THEREOF, AND PROCESSES TO OBTAIN” (Merck Patent GmbH, priority 2021, published 2024).

SMILES strings stand for the structures. ≈ marks a conversion by molar mass, not a printed value. Like-named read-outs stand apart in the source and are kept apart here.

The nature of data set [1]: Thermodynamic solubility (24 h) at 37° C. The conditions noted are these: for solubility thermodynamic at 24 h: 37 °C, thermodynamic from solid. Type of data set: physicochemical. On the procedure:
Approximately 10-20 mg of 1-(4-{[6-Amino-5-(4-phenoxy-phenyl)-pyrimidin-4-ylamino]-methyl}-4-fluoro-piperidin-1-yl)-propenone was weighed into a 4 mL glass vial. 1 mL of SGF medium (simulated gastric fluid, pH 1.2), FaSSIF medium (fasted state intestinal medium, pH 6.5), or USP Phosphate buffer pH 7.4 was added and the suspension was shaken for 24 h at 450 rpm at 37° C. After 1 hour, 6 hours and after 24 hours, the vials were checked for the presence of undissolved compound and the pH was measured. If necessary, the pH was adjusted after 1 hour and 6 hours. The solid liquid separation was carried out using 1 mL syringe and 0.2 μm syringe filter. Clear filtrate was analyzed by HPlC after suitable dilution to measure the amount of API dissolved.

A short description of data set [2]: Water Vapour Sorption isotherm (25° C., DVS-Intrinsic). The data set is classed as physicochemical. The conditions noted are these: for water uptake levels: 25° C. On the procedure: DSC scan of trimeric form A1 was acquired on a Mettler-Toledo DSC 1 with a heating rate of 5 K/min, using nitrogen purge gas at 50 mL/min. TGA scan of trimeric form A1 was acquired on a Mettler-Toledo TGA 851 with a heating rate of 5 K/min, using nitrogen purge gas at 50 mL/min. […] Eur. Criteria (section 5.11.). Water Vapour Sorption isotherm was acquired on a DVS-Intrinsic system from SMS. […] Dissolution level of trimeric form A1 in Simulated Gastric Fluid [SGF, pH 1.2] at 37° C. was determined to be approximately 2.4 mg/mL after 2 h (see example 12).
DSC scan of hydrate form NF2 was acquired on a Mettler-Toledo DSC 1 with a heating rate of 5 K/min, using nitrogen purge gas at 50 mL/min. TGA scan of hydrate form NF2 was acquired on a Mettler-Toledo TGA 851 with a heating rate of 5 K/min, using nitrogen purge gas at 50 mL/min. […] Eur. Criteria (section 5.11.). Water Vapour Sorption isotherm was acquired on a DVS-Intrinsic system from SMS.
In the DSC, a phase transition to trimeric form A1 occurred above 150° C., and the trimeric A1 form has a melting peak onset greater than 220° C. […] DSC scan of the anhydrous form NF9 was acquired on a Mettler-Toledo DSC 1 with a heating rate of 5 K/min, using nitrogen purge gas at 50 mL/min. TGA scan of anhydrous form NF9 was acquired on a Mettler-Toledo TGA 851 with a heating rate of 5 K/min, using nitrogen purge gas at 50 mL/min. […] Eur. Criteria (section 5.11.). […] Water Vapour Sorption isotherm was acquired on a DVS-Intrinsic system from SMS.
This is followed by an exothermic event in the DSC, assigned to a phase transition to trimeric form A1. Finally, the melting of trimeric form A1 with melting peak onset at temperatures greater than 220° C. […] DSC scan of the hydrate of trimeric boronic acid adduct form NF7 was acquired on a Mettler-Toledo DSC 1 with a heating rate of 5 K/min, using nitrogen purge gas at 50 mL/min. TGA scan of the hydrate of trimeric boronic acid adduct form NF7 was acquired on a Mettler-Toledo TGA 851 with a heating rate of 5 K/min, using nitrogen purge gas at 50 mL/min. […] Eur. Criteria (section 5.11.). […]

The target of data set [3] is LMP7 subunit of the immunoproteasome (Homo sapiens, UniProt P20618+P28062). The note with it: Singh et al, Br. J. Hematology 152(2): 155-163; cited from earlier work.

As a reminder, the thermodynamic solubility is the concentration in solution at equilibrium with solid. On to `O=C(N[C@@H](Cc1coc2ccccc12)B(O)O)[C@@H]1C[C@H]2CC[C@@H]1O2` [Form NF2], for which the “Thermodynamic solubility FaSSIF pH 6.5” value in data set [1] (Fasted-State Simulated Intestinal Fluid pH 6.5, 37° C., 24 h) is given as 0.7 mg/mL. In addition, the “Thermodynamic solubility SGF pH 1.2” value in data set [1] (Simulated Gastric Fluid pH 1.2, 37° C., 24 h) is recorded as 0.7 mg/mL. Also, the solubility (thermodynamic) at 24 h in data set [1] (fasted-state simulated intestinal fluid (FaSSIF), pH 6.5, fassif, Fasted-State Simulated Intestinal Fluid pH 6.5, 37° C., 24 h, read-out: Thermodynamic solubility FaSSIF pH 6.5) is approximately 700 µg/mL (≈ 2130 µM); in data set [1] (simulated gastric fluid (SGF), pH 1.2, simulated gastric fluid, Simulated Gastric Fluid pH 1.2, 37° C., 24 h, read-out: Thermodynamic solubility SGF pH 1.2), approximately 700 µg/mL (≈ 2130 µM). The “solubility in biorelevant media (in words)” value in data set [1] (listed as Hydrate form NF2) was “highly soluble in biorelevant media”; in data set [1] (listed as hydrate form NF2), “good solubility in biorelevant media”. Further, the “hygroscopicity classification according to Ph. Eur. Criteria (section 5.11.)” value in data set [2] is “slightly hygroscopic”. In addition, the figures for the water uptake levels in data set [2] (relative humidity range 0-80% rh) and in data set [2] (relative humidity range 90-98% rh) were not above 1 % m/m and not above 5 % m/m, respectively.
Consider `CC1=C(C(=O)N[C@H](C)C(=O)N[C@@H](Cc2c[nH]c3ccccc23)C(=O)N[C@@H](Cc2ccccc2)C(=O)[C@@]2(C)CO2)Cc2ccccc21` [PR-924], for which the “selectivity as inhibitor of the LMP7 subunit” value in data set [3] is 100 fold.
